One data set has as its target T1, rat MAO-A (Rattus norvegicus, UniProt P21396).
T1 construct: using a crude rat brain mitochondrial suspension as a source of enzyme; from tissue; host or cells: rat brain (crude mitochondrial suspension)
T1 sequence (P21396 1-526): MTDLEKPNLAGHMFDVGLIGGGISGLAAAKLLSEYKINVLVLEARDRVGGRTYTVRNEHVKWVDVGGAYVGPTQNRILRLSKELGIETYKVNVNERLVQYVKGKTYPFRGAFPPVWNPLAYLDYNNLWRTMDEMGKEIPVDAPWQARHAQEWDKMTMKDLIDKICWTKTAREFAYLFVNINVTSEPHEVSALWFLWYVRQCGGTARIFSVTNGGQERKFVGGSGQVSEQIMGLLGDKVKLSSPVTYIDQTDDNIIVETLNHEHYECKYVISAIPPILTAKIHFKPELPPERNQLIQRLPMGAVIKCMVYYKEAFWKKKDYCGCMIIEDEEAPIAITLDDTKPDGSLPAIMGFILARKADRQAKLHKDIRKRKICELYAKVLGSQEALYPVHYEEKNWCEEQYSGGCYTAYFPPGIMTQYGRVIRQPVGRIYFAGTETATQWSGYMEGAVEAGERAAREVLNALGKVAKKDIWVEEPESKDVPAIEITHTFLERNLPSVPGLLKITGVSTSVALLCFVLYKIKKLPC
The data set can be described thus: MAO-A inhibition, crude rat brain mitochondrial suspension, serotonin substrate, HPLC-ED. To be noted: 100 µM compound; serotonin 100 µM as substrate. The data set is classed as biochemical. The procedure: The effects of the compounds on rat MAO-A activity were studied following a previously reported methodology, using a crude rat brain mitochondrial suspension as a source of enzyme. Serotonin (100 µM) was used as the selective substrate for MAO-A. This compound and its metabolite were detected by HPLC with electrochemical detection. As an exploratory evaluation, the percentage of MAO-A inhibition in the presence of 100 µM of the different compounds was determined, with the idea of evaluating in detail those compounds showing an inhibitory activity in the range of 70–100%.

For the next data set, the target named is T2, D2 receptor (Homo sapiens, UniProt P14416).
T2 construct: purchased Perkin-Elmer (Boston, MA, USA) RBHD2CM400UA; host or cells: CHO-K1 clonal cell line
T2 sequence (P14416 whole entry): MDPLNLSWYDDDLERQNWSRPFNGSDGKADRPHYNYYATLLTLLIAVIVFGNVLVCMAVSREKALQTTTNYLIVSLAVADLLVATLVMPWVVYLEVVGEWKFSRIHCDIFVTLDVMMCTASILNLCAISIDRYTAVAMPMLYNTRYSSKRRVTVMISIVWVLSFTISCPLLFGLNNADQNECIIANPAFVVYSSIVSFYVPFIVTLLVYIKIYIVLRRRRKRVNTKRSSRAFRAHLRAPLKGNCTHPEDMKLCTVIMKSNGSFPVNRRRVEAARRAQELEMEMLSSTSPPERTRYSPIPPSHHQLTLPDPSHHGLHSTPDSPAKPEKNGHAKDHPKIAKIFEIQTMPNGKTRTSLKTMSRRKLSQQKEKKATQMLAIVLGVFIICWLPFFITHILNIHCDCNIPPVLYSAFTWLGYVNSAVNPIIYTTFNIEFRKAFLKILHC
Nature of the data set: D2 receptor competitive binding assay, [3H]-methylspiperone, membranes from CHO-K1 clonal cell line overexpressing D2 receptor. To be noted: for Ki: 0.5 nM [3H]-methylspiperone, 2 h at 27 °C, mean ± SEM of three experiments, each in triplicate. Here is the method:
To determine the binding of all compounds at D2 receptor, competitive binding assays were performed according to provider indications with some modifications. […] Radioactivity was counted as described before.

For the next data set, the target named is T3, SERT (Homo sapiens, UniProt P31645).
T3 construct: purchased Perkin-Elmer (Boston, MA, USA) RBHSTM400UA; host or cells: HEK-293 clonal cell line
T3 sequence (P31645 whole entry): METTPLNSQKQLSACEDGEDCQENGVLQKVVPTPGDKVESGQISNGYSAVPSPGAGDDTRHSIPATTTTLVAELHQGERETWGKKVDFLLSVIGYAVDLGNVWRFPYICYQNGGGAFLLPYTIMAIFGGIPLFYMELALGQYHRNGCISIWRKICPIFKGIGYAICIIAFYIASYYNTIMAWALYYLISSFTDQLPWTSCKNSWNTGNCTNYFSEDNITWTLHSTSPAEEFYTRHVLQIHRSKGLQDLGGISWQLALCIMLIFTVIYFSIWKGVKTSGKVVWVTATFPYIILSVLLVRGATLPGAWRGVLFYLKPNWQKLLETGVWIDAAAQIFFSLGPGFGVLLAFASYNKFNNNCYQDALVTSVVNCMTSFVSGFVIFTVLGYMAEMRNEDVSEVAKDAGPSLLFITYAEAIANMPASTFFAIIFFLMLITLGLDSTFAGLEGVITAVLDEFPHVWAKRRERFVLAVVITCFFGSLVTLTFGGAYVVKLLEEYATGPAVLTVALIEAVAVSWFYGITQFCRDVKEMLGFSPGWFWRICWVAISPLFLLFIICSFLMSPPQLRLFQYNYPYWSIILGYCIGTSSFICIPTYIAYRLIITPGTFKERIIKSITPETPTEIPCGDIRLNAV
The data set can be described thus: SERT competitive binding assay, [3H]-paroxetine, membranes from HEK-293 clonal cell line overexpressing SERT. Here is the method: To determine the binding of all compounds at SERT, competitive binding assays were performed according to previously reported procedures with some modifications. […] Control curve was performed with fluoxetine in the same experimental conditions. Non-specific binding was determined with 10 µM fluoxetine.
The IC50 and Ki values correspond to the results of three independent experiments, each in triplicate. All data are expressed as the mean ± SEM.

Where [1] appears, read: 2 nM [3H]-paroxetine, 1 h at 27 °C, mean ± SEM of three experiments, each in triplicate, read-out: Ki SERT.

Molecules are shown by their SMILES. Read-outs that look alike come from different tables or passages of the source.

As usually defined, the inhibition is how much of the control response was suppressed. The term melting point denotes the temperature of the solid-liquid transition. Regarding `O=C(CN1CCN(CCCc2c[nH]c3ccc(Br)cc23)CC1)Nc1ccc(F)cc1C(=O)NCCN1CCOCC1` [Compound 13h, 5-Fluoro-2-(2-{4-[3-(5-bromo-1H-3-indolyl)-propyl]-1-piperazinyl}-acetylamino)-N-(2-morpholin-4-yl-ethyl) Benzamide], the melting point is 73.8 to 74.7 °C. For the same compound, at rat MAO-A, at 100 µM the inhibition was 9.4%. This compound also registered a Ki at D2 receptor of 4700 ± 168 nM. Moreover, the Ki on SERT (setting [1]) came out at 200 ± 14.5 nM.

For `O=C(CN1CCN(CCCc2c[nH]c3ccccc23)CC1)N1CCOc2ccccc21` [Compound 7a, 1-(2,3-Dihydro-benzo[b][1,4]oxazin-4-yl)-2-{4-[3-(1H-3-indolyl)-propyl]-1-piperazinyl} ethanamide], the melting point lay within 124.3 to 125.8 °C. Further, the inhibition at 100 µM at rat MAO-A was determined as 27%. The compound also had a Ki on D2 receptor of 4840 ± 68 nM. Also, the Ki at SERT (setting [1]) was determined as 307 ± 30.5 nM.

As to `O=C(CN1CCN(CCCc2c[nH]c3ccc(Br)cc23)CC1)Nc1cc(F)ccc1C(=O)NCCN1CCOCC1` [Compound 13e, 4-Fluoro-2-(2-{4-[3-(5-bromo-1H-3-indolyl)-propyl]-1-piperazinyl}-acetylamino)-N-(2-morpholin-4-yl-ethyl) Benzamide], the melting point fell in the range of 92.1 to 93.8 °C. The same compound came in with an inhibition at 100 µM against rat MAO-A of 39%. On D2 receptor, the Ki worked out at 5619 ± 31 nM. The Ki at SERT (setting [1]) is 223 ± 16.4 nM.

Turning to `O=C(CN1CCN(CCCc2c[nH]c3ccccc23)CC1)Nc1ccc(F)cc1C(=O)NCCN1CCOCC1` [Compound 13l, 5-Fluoro-2-(2-{4-[3-(1H-3-indolyl)-propyl]-1-piperazinyl}-acetylamino)-N-(2-morpholin-4-yl-ethyl) Benzamide], the melting point lay within 68.1 to 69.6 °C. Also, the inhibition at 100 µM at rat MAO-A worked out at 34%. This compound came in with a Ki on D2 receptor of 2000 ± 34 nM. At SERT (setting [1]), the Ki turned out to be 52.2 ± 3.24 nM.

Consider `O=C(CN1CCN(CCCc2c[nH]c3ccccc23)CC1)N1CCOc2ccc(F)cc21` [Compound 7c, 1-(6-Fluoro-2,3-dihydro-benzo[b][1,4]oxazin-4-yl)-2-{4-[3-(1H-3-indolyl)-propyl]-1-piperazinyl} ethanamide], for which the melting point fell in the range of 123.8 to 125.1 °C. Further, at 100 µM the inhibition on rat MAO-A was 40%. Also, the Ki on D2 receptor worked out at 2390 ± 163 nM. At SERT (setting [1]), the Ki was determined as 68.8 ± 1.02 nM.

`O=C(CN1CCN(CCCc2c[nH]c3ccccc23)CC1)N1CCOc2cc(F)ccc21` [Compound 7b, 1-(7-Fluoro-2,3-dihydro-benzo[b][1,4]oxazin-4-yl)-2-{4-[3-(1H-3-indolyl)-propyl]-1-piperazinyl} ethanamide] showed a melting point of 124 to 125.3 °C. The compound also showed an inhibition at 100 µM at rat MAO-A of 43%. The Ki at D2 receptor worked out at 4740 ± 131 nM. The Ki on SERT (setting [1]) is 181 ± 20 nM.

`O=C(CN1CCN(CCCc2c[nH]c3ccc(F)cc23)CC1)N1CCOc2ccc(F)cc21` [Compound 7i, 1-(6-Fluoro-2,3-dihydro-benzo[b][1,4]oxazin-4-yl)-2-{4-[3-(5-fluoro-1H-3-indolyl)-propyl]-1-piperazinyl} ethanamide]: the melting point was 166.8 to 168.1 °C. For the same compound, at rat MAO-A, the inhibition at 100 µM came to 0%. Further, the Ki at D2 receptor is 1680 ± 79 nM. The Ki on SERT (setting [1]) came to 7.51 ± 0.12 nM.

`O=C(CN1CCN(CCCc2c[nH]c3ccc(Br)cc23)CC1)N1CCOc2ccc(F)cc21` [Compound 7o, 1-(6-Fluoro-2,3-dihydro-benzo[b][1,4]oxazin-4-yl)-2-{4-[3-(5-bromo-1H-3-indolyl)-propyl]-1-piperazinyl} ethanamide] yielded a melting point of 97.2 to 98.8 °C. This compound gave an inhibition at 100 µM against rat MAO-A of 26%. This compound also returned a Ki on D2 receptor of 1150 ± 227 nM. Further, on SERT (SERT, experimental values used for CoMFA/CoMSIA (Table S3), read-out: Exp. pKi (converted)), the Ki is 34.9 nM.

Regarding `O=C(CN1CCN(CCCc2c[nH]c3ccc(Br)cc23)CC1)Nc1ccc(F)c(C(=O)NCCN2CCOCC2)c1` [Compound 13g, 2-Fluoro-5-(2-{4-[3-(5-bromo-1H-3-indolyl)-propyl]-1-piperazinyl}-acetylamino)-N-(2-morpholin-4-yl-ethyl) Benzamide], the melting point was 73.2 to 74.5 °C. The same compound returned an inhibition at 100 µM against rat MAO-A of 16%. Also, the Ki on D2 receptor came to 765 ± 16 nM. Moreover, the Ki at SERT (setting [1]) was found to be 12.6 ± 0.42 nM.

`O=C(CN1CCN(CCCc2c[nH]c3ccc(F)cc23)CC1)Nc1ccc(F)c(C(=O)NCCN2CCOCC2)c1` [Compound 13c, 2-Fluoro-5-(2-{4-[3-(5-fluor-1H-3-indolyl)-propyl]-1-piperazinyl}-acetylamino)-N-(2-morpholin-4-yl-ethyl) Benzamide] came in with a melting point of 91.8 to 93.2 °C. In addition, at rat MAO-A, testing at 100 µM gave an inhibition of 28%. The Ki on D2 receptor stood at 593 ± 30.2 nM. On SERT (setting [1]), the Ki was 6.83 ± 0.19 nM.

For `O=C(CN1CCN(CCCc2c[nH]c3ccc(Br)cc23)CC1)Nc1cc(C(=O)NCCN2CCOCC2)ccc1F` [Compound 13f, 4-Fluoro-3-(2-{4-[3-(5-bromo-1H-3-indolyl)-propyl]-1-piperazinyl}-acetylamino)-N-(2-morpholin-4-yl-ethyl) Benzamide], the melting point was 85.2 to 86.8 °C. At rat MAO-A, this compound registered an inhibition at 100 µM of 39%. On D2 receptor, the Ki turned out to be 1830 ± 33 nM. In addition, the Ki on SERT (setting [1]) was determined as 58.8 ± 1.14 nM.

`O=C(CN1CCN(CCCc2c[nH]c3ccccc23)CC1)N1CCOc2ccc(Br)cc21` [Compound 7e, 1-(6-Bromo-2,3-dihydro-benzo[b][1,4]oxazin-4-yl)-2-{4-[3-(1H-3-indolyl)-propyl]-1-piperazinyl} ethanamide] registered a melting point of 132.7 to 134.1 °C. At rat MAO-A, this compound gave an inhibition at 100 µM of 38%. Moreover, the Ki at D2 receptor was 910 ± 263 nM. The Ki at SERT (setting [1]) is 36.6 ± 0.55 nM.

`O=C(CN1CCN(CCCc2c[nH]c3ccc(F)cc23)CC1)Nc1cc(C(=O)NCCN2CCOCC2)ccc1F` [Compound 13b, 4-Fluoro-3-(2-{4-[3-(5-fluor-1H-3-indolyl)-propyl]-1-piperazinyl}-acetylamino)-N-(2-morpholin-4-yl-ethyl) Benzamide] showed a melting point of 92.2 to 93.9 °C. For the same compound, 100 µM produced 42% inhibition against rat MAO-A. In addition, the Ki at D2 receptor is 3100 ± 42 nM. At SERT (setting [1]), the Ki was 23.8 ± 0.46 nM.

In turn, `O=C(CN1CCN(CCCc2c[nH]c3ccc(F)cc23)CC1)N1CCOc2cc(F)ccc21` [Compound 7h, 1-(7-Fluoro-2,3-dihydro-benzo[b][1,4]oxazin-4-yl)-2-{4-[3-(5-fluoro-1H-3-indolyl)-propyl]-1-piperazinyl} ethanamide] showed a melting point of 168.1 to 169.9 °C. The compound further showed an inhibition at 100 µM at rat MAO-A of 0%. The compound further had a Ki at D2 receptor of 2320 ± 163 nM. For the same compound, the Ki at SERT (setting [1]) turned out to be 7.61 ± 0.02 nM.

`O=C(CN1CCN(CCCc2c[nH]c3ccc(F)cc23)CC1)N1CCOc2ccc(Cl)cc21` [Compound 7j, 1-(6-Chloro-2,3-dihydro-benzo[b][1,4]oxazin-4-yl)-2-{4-[3-(5-fluoro-1H-3-indolyl)-propyl]-1-piperazinyl} ethanamide]: the melting point was in the range of 120.5 to 122.8 °C. This compound also yielded an inhibition at 100 µM against rat MAO-A of 20%. On D2 receptor, this compound gave a Ki of 902 ± 4 nM. In addition, the Ki on SERT (setting [1]) is 12.3 ± 2.31 nM.

With `O=C(CN1CCN(CCCc2c[nH]c3ccc(F)cc23)CC1)N1CCOc2ccccc21` [Compound 7g, 1-(2,3-Dihydro-benzo[b][1,4]oxazin-4-yl)-2-{4-[3-(5-fluoro-1H-3-indolyl)-propyl]-1-piperazinyl} ethanamide], the melting point lay in the range of 168.4 to 171.3 °C. The same compound returned an inhibition at 100 µM at rat MAO-A of 41%. In addition, at D2 receptor, the Ki was 2320 ± 64 nM. Besides, the Ki on SERT (setting [1]) was 9.63 ± 0.31 nM.

In turn, `O=C(CN1CCN(CCCc2c[nH]c3ccc(Br)cc23)CC1)N1CCOc2cc(F)ccc21` [Compound 7n, 1-(7-Fluoro-2,3-dihydro-benzo[b][1,4]oxazin-4-yl)-2-{4-[3-(5-bromo-1H-3-indolyl)-propyl]-1-piperazinyl} ethanamide] displayed a melting point of 96.1 to 98.1 °C. The compound also yielded an inhibition at 100 µM against rat MAO-A of 23%. The compound also returned a Ki at D2 receptor of 307 ± 6 nM. Besides, at D2 receptor (ratio of Ki at D2 receptor to Ki at SERT), the D2/SERT ratio is 3.6. At SERT (setting [1]), the Ki stood at 84.4 nM.

Values taken from PMC7594025, “Synthesis, Docking, 3-D-Qsar, and Biological Assays of Novel Indole Derivatives Targeting Serotonin Transporter, Dopamine D2 Receptor, and Mao-A Enzyme: In the Pursuit for Potential Multitarget Directed Ligands” (Molecules, 2020).
